Data as given in ChEMBL document CHEMBL4152362, “Discovery of DS-6930, a potent selective PPARγ modulator. Part II: Lead optimization” (Bioorg Med Chem, 2018).
Converted amounts (≈) assume the structure as drawn. The source made the active and inactive calls. The calls are words filed in the database; no cut-off is given here.

Experiments:
[1] = Cmax in Zucker diabetic fatty rat at 3 mg/kg, po dosed once daily for 14 days and followed by additional administration on day 15; format: ADME, organism-based; parameters: dose 3 mg/kg, route oral; conditions: in vivo
Rattus norvegicus [2] = assay: Antidiabetic activity in Zucker diabetic fatty rat assessed as reduction in plasma glucose level at 3 mg/kg, po administered once daily for 14 days measured on day 15 relative to control; format: functional; parameters: scale not given: the % may be the effect or the level left
Rattus norvegicus [3] = assay: Toxicity in Zucker diabetic fatty rat assessed as body weight gain at 3 mg/kg, po administered once daily for 14 days relative to control; format: organism-based; conditions: in vivo, 336 h
[4] = Tmax in Zucker diabetic fatty rat at 3 mg/kg, po dosed once daily for 14 days and followed by additional administration on day 15; format: ADME, organism-based; conditions: in vivo
[5] = AUC (0 to 24 hrs) in Zucker diabetic fatty rat at 3 mg/kg, po dosed once daily for 14 days and followed by additional administration on day 15; format: ADME, organism-based; parameters: time < 24 hr, dose 3 mg/kg, route oral; conditions: in vivo
[6] = molecular target: T1, Peroxisome proliferator-activated receptor gamma (Homo sapiens, UniProt P37231); assay: Agonist activity at recombinant human GAL4-DBD fused PPARgamma LBD expressed in COS7 cells after 24 hrs by luciferase reporter gene assay; format: cell-based
T1 sequence (P37231 whole entry): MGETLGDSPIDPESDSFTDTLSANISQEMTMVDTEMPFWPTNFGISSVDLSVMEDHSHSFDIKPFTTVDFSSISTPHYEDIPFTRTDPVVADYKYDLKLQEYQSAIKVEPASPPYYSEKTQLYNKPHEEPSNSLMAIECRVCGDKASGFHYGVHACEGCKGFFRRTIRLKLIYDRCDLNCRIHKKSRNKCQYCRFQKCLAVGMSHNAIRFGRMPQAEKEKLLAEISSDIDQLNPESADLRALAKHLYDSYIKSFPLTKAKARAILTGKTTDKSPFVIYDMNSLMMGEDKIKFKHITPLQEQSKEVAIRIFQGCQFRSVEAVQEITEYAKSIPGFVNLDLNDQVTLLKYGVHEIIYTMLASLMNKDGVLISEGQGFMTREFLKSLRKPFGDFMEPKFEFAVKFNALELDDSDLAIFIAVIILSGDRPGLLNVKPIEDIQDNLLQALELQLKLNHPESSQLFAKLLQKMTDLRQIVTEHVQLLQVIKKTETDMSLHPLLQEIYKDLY

[7] = molecular target: T2, Peroxisome proliferator-activated receptor gamma (Homo sapiens) (UniProt P37231); assay: Agonist activity at recombinant human GAL4-DBD fused PPARgamma LBD expressed in COS7 cells at 10 uM after 24 hrs by luciferase reporter gene assay relative to rosiglitazone; format: cell-based
T2 sequence (whole entry): T1 sequence (P37231 whole entry)

[8] = molecular target: T3, Peroxisome proliferator-activated receptor alpha (Homo sapiens, UniProt Q07869); assay: Agonist activity at recombinant human GAL4-DBD fused PPARalpha LBD expressed in COS7 cells after 24 hrs by luciferase reporter gene assay; format: cell-based
T3 sequence (Q07869 whole entry): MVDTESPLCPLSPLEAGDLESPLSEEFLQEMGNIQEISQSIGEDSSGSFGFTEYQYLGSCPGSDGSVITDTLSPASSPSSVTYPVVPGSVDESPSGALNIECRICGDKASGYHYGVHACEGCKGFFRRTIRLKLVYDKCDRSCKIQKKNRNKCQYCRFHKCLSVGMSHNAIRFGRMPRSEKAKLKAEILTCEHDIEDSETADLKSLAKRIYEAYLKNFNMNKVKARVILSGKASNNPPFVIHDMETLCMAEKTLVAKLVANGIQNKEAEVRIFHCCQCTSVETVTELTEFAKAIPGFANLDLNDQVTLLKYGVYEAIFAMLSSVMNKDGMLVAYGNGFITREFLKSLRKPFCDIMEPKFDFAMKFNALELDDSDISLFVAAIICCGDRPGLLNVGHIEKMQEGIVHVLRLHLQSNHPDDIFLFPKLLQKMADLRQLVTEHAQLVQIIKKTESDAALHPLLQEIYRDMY

[9] = molecular target: T4, Peroxisome proliferator-activated receptor alpha (Homo sapiens) (UniProt Q07869); assay: Agonist activity at recombinant human GAL4-DBD fused PPARalpha LBD expressed in COS7 cells at 10 uM after 24 hrs by luciferase reporter gene assay relative to 2-(4-tert-Butylphenoxy)-3-[4-[2-[(4-pyridin-2-ylbenzoyl)amino]ethoxy] phenyl]propionic acid; format: cell-based
T4 sequence (whole entry): T3 sequence (Q07869 whole entry)

[10] = 1-octanol/PBS distribution co-efficient, log D of the compound at […] at pH 7.4 after 30 mins by HPLC-MS/MS method; format: physicochemical
[11] = Aqueous thermodynamic solubility of the compound in pH 6.8 solution up to 4 hrs by HPLC-UV analysis; format: physicochemical; conditions: read-out: Therm_solubility
[12] = Apparent permeability of the compound after 4 hrs by PAMPA; format: ADME
[13] = Metabolic stability in human liver microsomes after 0.5 hrs; format: ADME, microsome; conditions: read-out: Stability
[14] = molecular target: T5, Peroxisome proliferator-activated receptor delta (Homo sapiens) (UniProt Q03181); assay: Agonist activity at PPARdelta (unknown origin) at 10 uM
T5 sequence (whole entry): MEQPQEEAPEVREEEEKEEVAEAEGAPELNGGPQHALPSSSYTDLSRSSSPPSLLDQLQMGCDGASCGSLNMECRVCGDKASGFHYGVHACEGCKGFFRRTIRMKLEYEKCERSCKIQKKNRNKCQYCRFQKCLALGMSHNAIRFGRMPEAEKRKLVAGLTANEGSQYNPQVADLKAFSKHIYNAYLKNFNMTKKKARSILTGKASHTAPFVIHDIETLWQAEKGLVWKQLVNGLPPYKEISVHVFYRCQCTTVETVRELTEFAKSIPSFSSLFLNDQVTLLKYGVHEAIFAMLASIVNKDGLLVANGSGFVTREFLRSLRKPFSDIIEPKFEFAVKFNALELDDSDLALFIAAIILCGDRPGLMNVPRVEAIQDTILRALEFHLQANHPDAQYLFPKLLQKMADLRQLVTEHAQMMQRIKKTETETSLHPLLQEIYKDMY

[15] = Metabolic stability in rat liver microsomes after 0.5 hrs; format: ADME, microsome; conditions: read-out: Stability
[16] = Metabolic stability in cynomolgus monkey liver microsomes after 0.5 hrs; format: ADME, Macaca fascicularis, microsome; conditions: read-out: Stability
[17] = Cmax in cynomolgus monkey at 3 mg/kg, po by LC-MS/MS; format: ADME, organism-based, Macaca fascicularis; parameters: dose 3 mg/kg, route oral; conditions: in vivo
[18] = Tmax in cynomolgus monkey at 3 mg/kg, po by LC-MS/MS; format: ADME, organism-based, Macaca fascicularis; conditions: in vivo
[19] = Half life in cynomolgus monkey at 3 mg/kg, po by LC-MS/MS; format: ADME, organism-based, Macaca fascicularis; conditions: in vivo
[20] = AUClast in cynomolgus monkey at 3 mg/kg, po by LC-MS/MS; format: ADME, organism-based, Macaca fascicularis; parameters: dose 3 mg/kg, time 0 - last, route oral; conditions: in vivo
[21] = Oral bioavailability in cynomolgus monkey at 3 mg/kg by LC-MS/MS; format: ADME, organism-based, Macaca fascicularis; conditions: in vivo
[22] = Clearance in cynomolgus monkey at 1 mg/kg, iv by LC-MS/MS; format: ADME, organism-based, Macaca fascicularis; conditions: in vivo
[23] = Volume of distribution at steady state in cynomolgus monkey at 1 mg/kg, iv by LC-MS/MS; format: ADME, organism-based, Macaca fascicularis; conditions: in vivo, read-out: Vdss
Hepatocyte [24] = assay: Cytotoxicity against F344/DuCrlCrlj rat primary hepatocytes assessed as reduction in mitochondrial enzyme activity at 10 to 100 uM after 24 hrs by WST8 assay; format: cell-based
Hepatocyte [25] = assay: Cytotoxicity against F344/DuCrlCrlj rat primary hepatocytes assessed as reduction in cell viability at 10 to 100 uM after 24 hrs by LDH release assay; format: cell-based

Structure (SMILES) | Cmax [1] [ng/mL] | Activity (Rattus norvegicus [2]) [%] | Activity (Rattus norvegicus [3]) [%] | Tmax [4] [h] | AUC at 24 h [5] [ng·h/mL] | EC50 [6] [µM] | Emax [7] [%] | EC50 [8] [µM] | Emax [9] [%] | logD at 0.5 h [10] | solubility thermodynamic at 4 h [11] [µg/mL] | Papp at 4 h [12] [×10⁻⁶ cm/s] | remaining at 0.5 h [13] [%] | Activity [14] | remaining at 0.5 h [15] [%] | remaining at 0.5 h [16] [%] | Cmax [17] [ng/mL] | Tmax [18] [h] | half-life [19] [h] | AUC(0-t) [20] [ng·h/mL] | further results
Cc1cnc(Oc2ccc3nc(COc4cccc(C(=O)[O-])c4)n(C)c3c2)c(F)c1.[Na+] | 420 | 65.7 | 10.8 | 2 | 3610 |  |  |  |  |  |  |  |  |  |  |  |  |  |  |  | 
Cn1c(COc2cccc(C(=O)O)c2)nc2ccc(Oc3ccc4c(c3)OCC4)nc21 | 630 | 55.3 | 7.1 | 2 | 3390 | 0.094 | 89 | > 10 | 20 | 1.4 | 17 (≈ 40.7 µM) | 9.1 | 92 | inactive | 89 | 88 | 460 | 1.5 | 13.3 | 4910 | bioavailability [21]: 27%; clearance [22]: 2.73 mL/min/kg; Vd [23]: 1.97 L/kg; Activity (Hepatocyte [24]): Non-Toxic; Activity (Hepatocyte [25]): Non-Toxic
Cn1c(COc2cccc(C(=O)O)c2)nc2ccc(Oc3ccc4c(c3)CCC4)nc21 | 600 | 70.4 | 14 | 2 | 4080 | 0.025 | 79 | > 10 | 23 | 2.5 | 4.3 (≈ 10.4 µM) | 31.5 | 76 | inactive | 71 |  |  |  |  |  | 
Cn1c(COc2cccc(C(=O)O)c2)nc2ccc(Oc3ncc(Cl)cc3F)cc21 | 450 | 70.6 | 13.8 | 2 | 3910 |  | 79 | > 10 | 5 | 1.3 | 10 (≈ 23.4 µM) | 11.8 | 90 |  | 87 | 91 | 1190 | 3.25 | 8.84 | 9940 | bioavailability [21]: 31%; clearance [22]: 1.66 mL/min/kg; Vd [23]: 0.5 L/kg; Activity (Hepatocyte [24]): Non-Toxic; Activity (Hepatocyte [25]): Non-Toxic
Cc1cnc(Oc2ccc3nc(COc4cccc(C(=O)O)c4)n(C)c3c2)c(C)c1 | 180 | 57 |  | 3.2 | 2490 |  |  |  |  | 1.4 |  |  |  |  | 92 | 80 | 2250 | 5 | 13.5 | 23500 | bioavailability [21]: 89%; clearance [22]: 2.06 mL/min/kg; Vd [23]: 0.36 L/kg
Cc1ccc(Oc2ccc3nc(COc4cccc(C(=O)O)c4)n(C)c3n2)cc1 | 510 | 37.6 | 6.8 | 2 | 2520 | 0.045 | 58 | > 10 | 38 | 1.7 | 33 (≈ 84.7 µM) | 12.6 |  | inactive | 100 |  |  |  |  |  | 
